The text below walks through data of patent US6677450B2, “Topoisomerase inhibitors” (Bristol-Myers Squibb Company, priority 2000, dated 2004).

pEC50, pIC50: −log10 of the molar value. Where two headings read alike, the source gives them in different places.

The target in data set [1] is T1, purified human topoisomerase I (Homo sapiens, UniProt P11387).
T1 construct: purchased Topogen
T1 sequence (P11387 1-765): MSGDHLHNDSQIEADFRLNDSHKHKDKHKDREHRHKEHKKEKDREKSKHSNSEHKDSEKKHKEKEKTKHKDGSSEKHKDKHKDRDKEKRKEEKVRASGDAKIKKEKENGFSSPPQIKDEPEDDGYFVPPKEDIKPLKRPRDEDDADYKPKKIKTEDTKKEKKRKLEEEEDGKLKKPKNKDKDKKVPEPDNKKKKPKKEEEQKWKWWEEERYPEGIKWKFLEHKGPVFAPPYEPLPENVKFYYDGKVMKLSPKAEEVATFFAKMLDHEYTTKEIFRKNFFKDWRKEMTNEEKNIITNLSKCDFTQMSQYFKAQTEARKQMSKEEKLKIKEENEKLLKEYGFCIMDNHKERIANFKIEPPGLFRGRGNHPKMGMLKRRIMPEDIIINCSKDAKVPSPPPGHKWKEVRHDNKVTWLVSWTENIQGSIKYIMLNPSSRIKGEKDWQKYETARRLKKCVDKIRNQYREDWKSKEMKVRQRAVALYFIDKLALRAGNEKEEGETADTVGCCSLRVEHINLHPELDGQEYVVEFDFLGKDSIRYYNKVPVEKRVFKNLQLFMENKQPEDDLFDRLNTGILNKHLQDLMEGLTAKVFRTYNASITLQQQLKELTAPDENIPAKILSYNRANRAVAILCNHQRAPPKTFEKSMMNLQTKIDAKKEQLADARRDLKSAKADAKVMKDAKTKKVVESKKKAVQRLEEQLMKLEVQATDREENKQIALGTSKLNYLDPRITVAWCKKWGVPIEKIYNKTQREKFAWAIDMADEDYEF
As to the kind of experiment: Topoisomerase I activity (in vitro): compound-induced, topoisomerase I-mediated single strand breaks in PM2 DNA. The data set is classed as biochemical. The settings on record: 30 minutes at 37° C., agarose gel densitometry, read-out: EC50 (median effective concentration for inducing topoisomerase I-mediated single strand breaks in DNA). How it is done: Topoisomerase I Activity (In Vitro)
Topoisomerase I activity was measured as described below: The procedure for assaying compound-induced, topoisomerase I-mediated single strand breaks in DNA was essentially that described by Hsiang, et al., (J. Biol Chem. 1985, 260, 14873-14878). Samples dissolved in 100% DMSO as either 10 μM or 10 mg/ml solutions, unless otherwise stated, were diluted in Tris-EDTA buffer. Marine bacteriophage PM2 DNA (Boehringer Mannheim) was also diluted in Tris-EDTA buffer to a concentration of 0.02 μg/μl. Different dilutions of the compound being evaluated were mixed with diluted DNA and this mixture was added to 1000 unit (one unit of enzyme activity is defined as the amount capable of relaxing 100 ng of supercoiled DNA in approximately 30 minutes at 37° C.) aliquots of purified human topoisomerase I (Topogen) in 2× reaction buffer to start the reaction. The compound-DNA-enzyme mixture was incubated for 30 minutes at 37° C. before stopping the reaction with warm stop buffer containing sodium dodecyl sulfate and proteinase K (Sigma). These mixtures were allowed to incubate at 37° C. for another 10 minutes, at which time the mixtures were removed from the waterbath and extracted with a 24:1 mixture of chloroform/isoamyl alcohol. Following centrifugation, aliquots of the aqueous phases were placed in wells of a 0.9% agarose (SeaKem) gel in Tris-borate buffer containing 0.5 μg/ml of ethidium bromide and subjected to electrophoresis for 15 hours to separate the different topological isomers and nicked and broken DNAs. After destaining the gel in water, the ethidium bromide stained DNA reaction products were visualized by exposing the gel to UV irradiation. Negatives of the photographs of the irradiated gels were scanned with a densitometer and areas under the peaks were calculated in order to obtain percent single strand DNA break formation for each sample. A median effective concentration (EC50) was obtained for each compound by interpolation between points of the resulting dose-effect curve which defines the potency of the compound for its effect in inducing topoisomerase I-mediated single strand breaks in DNA.
The topoisomerase I activity for certain compounds of the present invention is shown below in Table I.

Data set [2] relates to murine P388 cell line. The experiment in a line: In vitro cell-based cytotoxicity: proliferation inhibition, XTT tetrazolium assay. The settings on record: P388 cells, 72 h at 37° C., XTT absorbance at 450 nm, read-out: IC50 (drug concentration required to inhibit cell proliferation to 50% of untreated control cells). Here is the method: In Vitro Cell-Based Cytotoxicity Activity
The proliferation inhibition activity against murine P388 cell line was measured as follows. Evaluation of a soluble tetrazolium/formazan assay for cell growth and drug sensitivity in culture, using human and other tumor cell lines, was done according to the procedure described in Cancer Res. 1988, 48, 4827-4833. Cells were plated at 4000 cells/well in 96 well microtiter plates and 24 h later drugs were added and serially diluted. The cells were incubated at 37° C. for 72 h, at which time a tetrazolium dye, XTT, containing phenazine methosulfate was added. A dehydrogenase enzyme in live cells reduced the XTT to a form that absorbs light at 450 nm, which could be quantitated spectrophotometrically. The greater the absorbance the greater the number of live cells. The results are expressed as an IC50, which is the drug concentration required to inhibit cell proliferation (i.e., absorbance at 450 nm) to 50% of that of untreated control cells.

Consider “2,3,9,10-Tetrafluoro-12,13-[1,5-(6-deoxy-β-D-glucopyranosyl)]-6,7,12,13-tetrahydro(5H)indolo[2,3-a]pyrrolo[3,4-c]carbazole-5-one and 2,3,9,10-Tetrafluoro-12,13-[1,5-(6-deoxy-β-D-glucopyranosyl)]-6,7,12,13-tetrahydro(5H)-indolo[2,3-a]pyrrolo[3,4-c]carbazole-7-one [Example 23]”, for which, in data set [1], the pEC50 is 5.68. Moreover, the pIC50 in data set [2] is 6.62.

As to `O=C1NC(=O)c2c1c1c3cc(F)c(F)cc3n3c1c1c2c2cc(F)c(F)cc2n1C1OC(C3)C(O)C(O)C1O` [Example 3, 2,3,9,10-Tetrafluoro-12,13-(1,6-β-D-glucopyranosyl)-6,7,12,13-tetrahydro(5H)indolo[2,3-a]pyrrolo[3,4-c]carbazole-5,7-dione], the pEC50 in data set [1] was 6.46. In addition, in data set [2] (Mus musculus), the pIC50 was 7.30.

`O=C1NC(=O)c2c1c1c3cc(F)c(F)cc3n3c1c1c2c2cc(F)c(F)cc2n1C1OC(CC(O)C1O)C3` [Example 4, 2,3,9,10-Tetrafluoro-12,13-[1,6-(4-deoxy-β-D-glucopyranosyl)]-6,7,12,13-tetrahydro(5H)indolo[2,3-a]pyrrolo[3,4-c]carbazole-5,7-dione]: in data set [1], the pEC50 was 5.25. Moreover, in data set [2] (Mus musculus), the pIC50 was 7.15.

For the compound `O=C1NC(=O)c2c1c1c3cc(F)c(F)cc3n3c1c1c2c2cc(F)c(F)cc2n1C1OC(C3)C(O)CC1O` [Example 5, 2,3,9,10-Tetrafluoro-12,13-[1,6-(3-deoxy-β-D-glucopyranosyl)]-6,7,12,13-tetrahydro(5H)indolo[2,3-a]pyrrolo[3,4-c]carbazole-5,7-dione], the pEC50 in data set [1] is 6.17. Moreover, in data set [2] (Mus musculus), the pIC50 was 7.64.

Regarding `O=C1NC(=O)c2c1c1c3cc(F)c(F)cc3n3c1c1c2c2cc(F)c(F)cc2n1C1OC(C3)C(O)C(F)C1O` [Example 6, 2,3,9,10-Tetrafluoro-12,13-[1,6-(3-deoxy-3-fluoro-β-D-glucopyranosyl)]-6,7,12,13-tetrahydro(5H)indolo[2,3-a]pyrrolo[3,4-c]carbazole-5,7-dione], the pEC50 in data set [1] was under 4.00. Moreover, the pIC50 in data set [2] (Mus musculus) was 5.11.

With `COC1C2Cn3c4c(Cl)cccc4c4c5c(c6c7cccc(Cl)c7n(c6c43)C(O2)C(O)C1O)C(=O)NC5=O` [Example 7, 1,11-Dichloro-12,13-[1,6-(4-O-methyl-β-D-glucopyranosyl)]-6,7,12,13-tetrahydro(5H)indolo[2,3-a]pyrrolo[3,4-c]carbazole-5,7-dione], the pEC50 in data set [1] is under 4.00. Also, in data set [2] (Mus musculus), the pIC50 is 6.34.

`O=C1NC(=O)c2c1c1c3cc(F)c(F)cc3n3c1c1c2c2cc(F)c(F)cc2n1C1OC(C3)C(F)C(O)C1O` [Example 8, 2,3,9,10-Tetrafluoro-12,13-[1,6-(4-deoxy-4-fluoro-β-D-glucopyranosyl)]-6,7,12,13-tetrahydro(5H)indolo[2,3-a]pyrrolo[3,4-c]carbazole-5,7-dione]: the pEC50 in data set [1] was 6.21. The pIC50 in data set [2] (Mus musculus) was 7.59.

As to `O=C1NC(=O)c2c1c1c3cc(F)c(F)cc3n3c1c1c2c2cc(F)c(F)cc2n1C1OC(C3)C(F)(F)C(O)C1O` [Example 9, 2,3,9,10-Tetrafluoro-12,13-[1,6-(4-deoxy-4,4-difluoro-β-D-glucopyranosyl)]-6,7,12,13-tetrahydro(5H)indolo[2,3-a]pyrrolo[3,4-c]carbazole-5,7-dione], the pEC50 in data set [1] is under 4.00. Besides, in data set [2] (Mus musculus), the pIC50 was 7.68.

`O=C1NC(=O)c2c1c1c3ccc(F)cc3n3c1c1c2c2ccc(F)cc2n1C1OC(C3)C(O)C(O)C1O` [Example 10, 2,10-Difluoro-12,13-[1,6-β-D-glucopyranosyl]-6,7,12,13-tetrahydro(5H)indolo-[2,3-a]pyrrolo[3,4-c]carbazole-5,7-dione] returned a melting point of over 300 °C. In addition, in data set [1], the pEC50 is 6.35. The pIC50 in data set [2] (Mus musculus) was 6.89.

On to `O=C1NC(=O)c2c1c1c3cc(F)c(F)cc3n3c1c1c2c2cc(F)c(F)cc2n1[C@@H]1OC(CO)[C@H]3C(O)C1O` (stereo partly drawn) [Example 13, 2,3,9,10-Tetrafluoro-12,13-(1,4-β-D-galactopyranosyl)-6,7,12,13-tetrahydro(5H)indolo[2,3-a]pyrrolo[3,4-c]carbazole-5,7-dione], for which the pEC50 in data set [1] was 5.09. Further, in data set [2] (Mus musculus), the pIC50 is 5.55.

`O=C1NC(=O)c2c1c1c3cc(F)c(F)cc3n3c1c1c2c2cc(F)c(F)cc2n1[C@@H]1OC(CF)[C@H]3C(O)C1O` (stereo partly drawn) [Example 16, 2,3,9,10-Tetrafluoro-12,13-[1,4-(6-deoxy-6-fluoro-β-D-galactopyranosyl)]-6,7,12,13-tetrahydro(5H)indolo[2,3-a]pyrrolo[3,4-c]carbazole-5,7-dione]: in data set [1], the pEC50 is 5.54. Further, the pIC50 in data set [2] (Mus musculus) is 5.48.

For `C[C@]12O[C@H]([C@H](O)[C@@H](O)[C@@H]1O)n1c3cc(F)c(F)cc3c3c4c(c5c6cc(F)c(F)cc6n2c5c31)C(=O)NC4=O` [Example 21], the pEC50 in data set [1] is 6.54. Also, the pIC50 in data set [2] (Mus musculus) is 6.85.

For `O=C1NC(=O)c2c1c1c3cc(F)c(F)cc3n3c1c1c2c2cc(F)c(F)cc2n1[C@@]1(CO)O[C@@H]3[C@H](O)[C@@H](O)[C@@H]1O` [Example 22, 2,3,9,10-Tetrafluoro-12,13-(1,5-β-D-glucopyranosyl)-6,7,12,13-tetrahydro(5H)indolo[2,3-a]pyrrolo[3,4-c]carbazole-5,7-dione], the pEC50 in data set [1] was 6.49. For the same compound, the pIC50 in data set [2] (Mus musculus) was 7.07.

For the compound `O=C1NC(=O)c2c1c1c3cc(F)ccc3n3c1c1c2c2cc(F)ccc2n1[C@@H]1O[C@H](CO)[C@H](O)[C@H](O)[C@@H]13` [Example 25, 3,9-Difluoro-12,13-[1,2-β-D-galactopyranosyl]-6,7,12,13-tetrahydro(5H)-indolo-[2,3-a]pyrrolo[3,4-c]carbazole-5,7-dione], the pEC50 in data set [1] was 6.96. In addition, the pIC50 in data set [2] (Mus musculus) was 7.85.

Consider `O=C1NC(=O)c2c1c1c3cc(F)ccc3n3c1c1c2c2cc(F)ccc2n1C1OC(C3)C(F)C(O)C1O` [Example 26, 3,9-Difluoro-12,13-[1,6-(4-deoxy-4-fluoro-β-D-glucopyranosyl)]-6,7,12,13-tetrahydro(5H)indolo[2,3-a]pyrrolo[3,4-c]carbazole-5,7-dione], for which the pEC50 in data set [1] was 7.55. Further, the pIC50 in data set [2] (Mus musculus) was 8.52.

Regarding `O=C1NC(=O)c2c1c1c3cc(F)ccc3n3c1c1c2c2cc(F)ccc2n1C1OC(C3)C(O)C(O)C1O` (centres unmarked) [Example 27], the pEC50 in data set [1] was 7.44. Moreover, the pIC50 in data set [2] (Mus musculus) was 7.29.

As for `O=C1NC(=O)c2c1c1c3cc(F)ccc3n3c1c1c2c2cc(F)ccc2n1[C@@H]1O[C@H](CO)[C@@H](O)[C@H](O)[C@@H]13` [Example 28, 3,9-Difluoro-12,13-[1,2-β-D-glucopyranosyl]-6,7,12,13-tetrahydro(5H)-indolo-[2,3-a]pyrrolo[3,4-c]carbazole-5,7-dione], the pEC50 in data set [1] was 6.92. Also, the pIC50 in data set [2] (Mus musculus) is 6.46.
